The series is described as follows: Human HepG2 cell viability assay in 384 well format. Type of series: toxicity, cell-based. The arrangement: dose 125 nL, time 70.5 hour; concentration not given beside the values. To be noted: HepG2 cells, read-out: Inhibition.
Consider `Cc1csc(CN(C)C(=O)C2CCC(=O)N(CCN(C)C)C2)n1` (configuration not stated), for which the cytotoxicity at 70.5 h was -3.99%.
On to `CN1CC(=O)N(c2cccc(F)c2)CC12CCNC2` (configuration not stated), for which the cytotoxicity at 70.5 h was determined as 1.26%.
`Cc1nc(C)c2c(n1)CCN(C(=O)CC1CC1)CC2`: the cytotoxicity at 70.5 h was -6.2%.
For `CC(=O)NCC(=O)N1Cc2nccn2CC(Cn2cccn2)C1` (configuration not stated) the value was -4.71%; for `Cc1noc([C@H]2C[C@@H]3CCN(C(=O)N(C)C)C[C@H]3O2)n1`, -4.62%.
Turning to `CN1C(=O)C2(CCN(CCO)C2)c2ccccc21` (configuration not stated), the cytotoxicity at 70.5 h was -5.56%.
For the compound `Cc1cc(CN2C[C@@H]3COC[C@]3(CNC(=O)c3ccno3)C2)no1`, the cytotoxicity at 70.5 h is -4.13%.
Turning to `Cn1ccc(C(=O)NC2CCC23CCN(C(=O)N2CCCC2)CC3)c1` (configuration not stated), the cytotoxicity at 70.5 h was -1.08%.
For `CCS(=O)(=O)N1CCC2(CCC2NC(=O)c2ccn(C)c2)CC1` (configuration not stated) the value was -7.91%; for `O=C(NCC1CC1)[C@H]1C[C@H]2OCC[C@H]2N(Cc2ccoc2)C1`, 22.9%; for `O=C(NCC1CC1)[C@H]1C[C@@H]2CN(S(=O)(=O)Cc3ccccc3)C[C@H]1O2`, 18.9%.
As to `O=C(c1cscn1)N1CCN2C[C@H](OCc3cccnc3)C[C@H]2C1`, the cytotoxicity at 70.5 h is 20%.
In the case of `CN(C)CCN1CC(C(=O)NCc2ccc(C#N)cc2)CC1=O` (configuration not stated), the cytotoxicity at 70.5 h was -1.01%.
Turning to `CCN(C)Cc1nc(-c2ccccc2NS(C)(=O)=O)oc1C`, the cytotoxicity at 70.5 h was -10.5%.
As for `Cc1ccccc1-n1cc(CNC(=O)CC2C(=O)NCCN2C)cn1` (configuration not stated), the cytotoxicity at 70.5 h is -1.91%.
Then `O=C(c1cn(Cc2ccc(Cl)cc2)nn1)N1CCCO1`, with -10.9%.
On to `c1ccc(-c2nc3c(c(NCc4n[nH]c5c4CCC5)n2)CCNC3)cc1`, for which the cytotoxicity at 70.5 h was 12.6%.
For `Cc1cc(NCCc2c[nH]cn2)nc(-c2cccnc2)n1` the value was -6.06%; for `CC(=O)c1ccc(C(=O)NCc2cccnc2N2CCCC(O)C2)s1` (configuration not stated), -14.1%; for `CC1(CCC(=O)N2CCC(n3cc(C4(O)CCCC4)nn3)CC2)CC1`, 22.5%.
Then `C[C@@H]1CN(C(=O)CCc2nncn2C)C[C@@]1(O)C1CCC1`, with -2.96%.
For `Cc1ccc(OC[C@@H]2CNC[C@H](C(=O)NCC3CCCO3)C2)cn1` (some centres not stated), the cytotoxicity at 70.5 h was -1.9%.
For `O=C(Cc1ccc2c(c1)OCO2)N[C@@H]1CCNC[C@H]1O`, the cytotoxicity at 70.5 h is -3.71%.
Then `COc1ccc(-c2noc(Cn3cnc(C)c3)n2)c(OC)c1OC`, with -0.844%.
In the case of `CC(C)=CCC1(C(=O)O)CCCN(c2ccnc(N)n2)C1` (configuration not stated), the cytotoxicity at 70.5 h stood at 17%.
Turning to `NCc1cc(NCC(c2ccccn2)N2CCOCC2)ncn1` (configuration not stated), the cytotoxicity at 70.5 h is -6.83%.
As for `CCn1cc(CN2CCC(C3CCN(C)CC3)CC2)cc1C#N`, the cytotoxicity at 70.5 h was -1.33%.
As to `OCC1CCCCN1Cc1nc(Cc2cccc(F)c2)no1` (configuration not stated), the cytotoxicity at 70.5 h was -12.1%.
Then `CCn1cc(CN2C[C@H]3CC[C@@H]2CN(C(=O)c2cnccn2)C3)cn1`, with -5.14%; and `Clc1ccc(-n2cnnc2CCCN2CCOCC2)cc1`, with 1.11%; and `CCn1c(C2CCCN(Cc3cc(F)ccc3OC)C2)nn(C)c1=O` (configuration not stated), with -9.41%.
Consider `O=C1CC2(CCN(c3nccc(-c4cc(C(=O)O)ccn4)n3)CC2)CN1`, for which the cytotoxicity at 70.5 h was -8.17%.
For `CC(C)=CCN1CCN(S(=O)(=O)c2cn(C)cn2)[C@H]2CS(=O)(=O)C[C@H]21` the value was 48.8%; for `Cc1nc(NCc2noc(C3CCCO3)n2)c2sccc2n1` (configuration not stated), 31.3%; for `Nc1ncccc1CN1CCOCC1CC(=O)NCc1ccccn1` (configuration not stated), 19.3%.
For `CC(C)N(C(=O)N1CCn2cncc2C1)C(C)C`, the cytotoxicity at 70.5 h was 1.59%.
`O=C(O)c1cccc(C2CCCN(S(=O)(=O)C3CC3)C2)c1` (configuration not stated): the cytotoxicity at 70.5 h was -10.8%.
In the case of `CCOc1ccccc1-n1c(CNC)n[nH]c1=O`, the cytotoxicity at 70.5 h was -2.54%.
In the case of `Cn1c(CCNC(=O)C2CCCN(C3CCOCC3)C2)n[nH]c1=O` (configuration not stated), the cytotoxicity at 70.5 h was -1.23%.
With `Cc1ccccc1CN1CCC(CNC(=O)Cn2cncn2)CC1`, the cytotoxicity at 70.5 h turned out to be 13.8%.
As to `O=C(CCCc1cn[nH]c1)N1C[C@H](CO)C[C@H](CN2CCCC2)C1`, the cytotoxicity at 70.5 h is -5.76%.
As for `CCC(=O)Nc1cccc(C(=O)NCCC2=CSC3=NCCCN23)c1`, the cytotoxicity at 70.5 h was -7.59%.
With `Cc1nnc(CN(CCc2ccccc2)C2CCN(C)CC2)s1`, the cytotoxicity at 70.5 h is -13.6%.
For `O=C1O[C@@H]2CN(Cc3ccccc3F)C[C@@H]2N1CCCN1CCOCC1` the value was 8.16%; for `CCN1CCN(C[C@@H]2CN(c3ncccc3C(F)(F)F)C[C@@H]2CO)CC1`, -5.49%; for `Cc1ccc(SCCCNC(=O)c2cn([C@H]3CC[C@@H](N)CC3)nn2)cc1`, 20.6%.
As to `CCc1nnc(NC(=O)c2ccc(C3CCCN3CC(C)C)s2)s1` (configuration not stated), the cytotoxicity at 70.5 h was -2.96%.
For `Cc1nc[nH]c1CN1C[C@@H]2CC[C@H](C1)N(C(=O)CCc1cccnc1)C2`, the cytotoxicity at 70.5 h was -11.7%.
In the case of `c1ccc2c(c1)CN(c1ncnc3c1CCNC3)CCO2`, the cytotoxicity at 70.5 h was -5.38%.
For `CCc1ccc(CN2CCN(CCOC)[C@@H]3CS(=O)(=O)C[C@@H]32)cc1` the value was 1.39%.
Take `O=c1c2sccc2ncn1Cc1cc(C2CC2)[nH]n1`: the cytotoxicity at 70.5 h is -8.84%.
Turning to `N#Cc1cccnc1N1CCCC(CO)(Cc2ccc(F)cc2)C1` (configuration not stated), the cytotoxicity at 70.5 h is -5.86%.
`COc1ccnc(CN2CCCC(CCc3ccc(F)cc3)C2)c1OC` (configuration not stated): the cytotoxicity at 70.5 h came to 2.04%.
For the compound `COc1cccc(F)c1-c1nc2c([nH]1)c(C1CC1)nn2C`, the cytotoxicity at 70.5 h came out at 10.5%.
Turning to `Cc1cnnn1Cc1ncn2c1CN(Cc1cccs1)CCC2`, the cytotoxicity at 70.5 h turned out to be 4.51%.
With `c1ccc(CN2CCc3ncnc(-c4ccsc4)c3CC2)nc1`, the cytotoxicity at 70.5 h was -12.4%.
For `O=C1CC(c2cccnc2)C2(CCN(S(=O)(=O)C3CC3)CC2)N1` (configuration not stated) the value was -3.38%.
Take `Cc1nc(CN2CCc3ncnc(C)c3CC2)cs1`: the cytotoxicity at 70.5 h is -6.23%.
Consider `Cn1cc(-c2cnc(N3CCOCC3)nc2)cc1C(=O)NCCO`, for which the cytotoxicity at 70.5 h was -6.33%.
For `CC(C)N(C)Cc1cnc2n1CCN(C(=O)NC1CCCC1)C2`, the cytotoxicity at 70.5 h is -9.47%.
For `COCCN1C(=O)C[C@H]2[C@H]1CCN2Cc1cccc(C#N)c1` the value was -19.1%; for `O=C(CC1CC1)NCc1cn2c(n1)CN(CC1CC1)CC2`, -19.5%; for `O=C1[C@@H]2CCN(Cc3ccoc3)C[C@@H]2OCCN1c1ccccc1`, -10.9%.
With `CCN1C[C@@H]2[C@@H](OC)CCN(S(=O)(=O)c3ccccc3F)[C@@H]2C1`, the cytotoxicity at 70.5 h is -9.34%.
Then `Cc1ncccc1NC(=O)[C@H]1C[C@@H]2CCN(Cc3nccs3)C[C@@H]2O1`, with -2.41%; and `COc1ccc(CN2C[C@@H]3OCCN(c4ncccn4)[C@@H]3C2)cc1`, with -7.28%.
With `Cc1cccc(CN2C(=O)CC[C@@H]3[C@H]2CCN3Cc2ccc(C)s2)n1`, the cytotoxicity at 70.5 h was -18.1%.

(Values after ChEMBL document CHEMBL3507680, “University of Dundee, Gates Library screen for HepG2 cell viability”.)
